Experimental findings from US5030635A, “6-7-dimethoxy-1,2-dihydro-2-arylquinazoline-3-oxides” (Ortho Pharmaceutical Corporation, priority 1990, dated 1991) are described below.

Assay [1] relates to myocardial contractile force. Nature of the assay: Acute In Vivo Cardiotonic Evaluation (myocardial contractile force). Further details: species or system adult mongrel dogs. As to conditions: Canis lupus familiaris, iv, i.v. infusion, anesthetized dogs, vs pretreatment control values, read-out: % Increase In Myocardial Contractile force; for change in vivo at 8.75 mg/kg: 8.75 mpk; for change in vivo at 1.87 mg/kg: 1.87 mpk. On the procedure:
Pharmacological Activity--Acute In Vivo Cardiotonic Evaluation
Using the procedures described by Alousi, A. A. et al., Circ. Res. 45, 666 (1979), adult mongrel dogs were anesthetized with sodium pentobarbital, and artificially respirated. Arterial pressure was recorded via a femoral artery and the pressure pulse was used to trigger a cardiotachometer for heart rate. Left ventricular pressure was measured with a Millar catheter, and dP/dt was derived. Cardiac output was determined by measuring ascending aortic blood flow with an electromagnetic flow probe, and the myocardial contractile force (CF) was measured with a Walton Brodie strain gauge sutured to the right ventricle. Lead II EKG was also recorded.
A standard dose of dopamine or dobutamine was administered in order to assess myocardial responsiveness. The test compounds were then administered by i.v. infusion and the effects on cardiovascular parameters were determined. The dose of each example compound was either 1.87 mg/kg or 8.75 mg/kg as set forth below in Table 1.
The dose related effects of the compound on myocardial contractile force was compared to pretreatment control values, expressed as a % change and rated for activity. Statistical evaluations were made using the appropriate parametric test against a vehicle control.

For assay [2], the system named is ovalbumin-induced bronchoconstriction. In words: Active Lung Anaphylaxis (inhibition of ovalbumin-induced bronchoconstriction). It is filed as in vivo, male Harley guinea pigs. Conditions: prior to ovalbumin provocation, actively sensitized guinea pigs, percent inhibition of control. The method, then:
Pharmacological Activity--Active Lung Anaphylaxis
Using the procedures described by Ritchie, D. M. et al., Agents and Actions 11, 4 (1981), male Harley guinea pigs were actively sensitized, intraperitoneally, with 16 mg alum and 1 mg ovalbumin. Fourteen days later, these animals were anesthetized and their respiration arrested by the administration of succinylcholine. Respiration was maintained at a constant pressure by a miniature Starling pump. Lung overflow changes in pressure were recorded.
Animals were pretreated with indomethacin (10 mg/kg, i.v.), atropine (0.5 mg/kg, i.v.), methysergide (0.1 mg/kg, i.v.), methapyrilene (2.0 mg/kg, i.v.) and arachidonic acid (5.0 mg/kg, i.v.) prior to ovalbumin challenge. […] Indications of drug efficacy were manifested as a substantial reduction in the degree of bronchoconstriction evidenced by control animals.
Bronchoconstriction induced by ovalbumin was measured as a percent of maximum bronchoconstriction (BC) obtained by clamping off the trachea. Percent inhibition of control was determined as follows: [formula]

Turning to `COc1cc2c(cc1OC)C(C)=[N+]([O-])C(c1ccc(Cl)cc1)N2` (stereo not drawn) [Example 2, 1,2-Dihydro-2-(4-chlorophenyl)-4-methyl-6,7-dimethoxyquinazoline-3-oxide], the change in vivo at 8.75 mg/kg in assay [1] is 50%. Still for that read-out and setting: under `COc1cc2c(cc1OC)C(C)=[N+]([O-])C(c1cccs1)N2` (stereo not drawn) [Example 10, 1,2-Dihydro-2-(2-thienyl)-4-methyl-6,7-dimethoxyquinazoline-3-oxide] stands 75%; under `COc1cc2c(cc1OC)C(C)=[N+]([O-])C(c1ccc3c(c1)OCO3)N2` (stereo not drawn) [Example 5, 1,2-Dihydro-2-(3,4-methylenedioxyphenyl)-4-methyl-6,7-dimethoxyquinazoline-3-oxide], 124%. Turning to `COc1cc2c(cc1OC)C(C)=[N+]([O-])C(c1ccc(C)cc1)N2` (stereo not drawn) [Example 4, 1,2-Dihydro-2-(4-tolyl)-4-methyl-6,7-dimethoxy-quinazoline-3-oxide], the “% Inhibition of Bronchoconstriction at 50 mpk” value (“% Inhibition” for short) in assay [2] is reported as 71.9%. In assay [1], the change in vivo at 1.87 mg/kg came out at 42%. Take `COc1cc2c(cc1OC)C(C)=[N+]([O-])C(c1cccc3c1OCO3)N2` (stereo not drawn) [Example 6, 1,2-Dihydro-2-(2,3-methylenedioxyphenyl)-4-methyl-6,7-dimethoxyquinazoline-3-oxide]: the change in vivo at 8.75 mg/kg in assay [1] is 45%.

As for `COc1ccc(C2Nc3cc(OC)c(OC)cc3C(C)=[N+]2[O-])cc1` (stereo not drawn) [Example 3, 1,2-Dyhydro-2-(4-methoxyphenyl)-4-methyl-6,7-dimethoxyquinazoline-3-oxide], the change in vivo at 1.87 mg/kg in assay [1] worked out at 29%.

Turning to `COc1cc2c(cc1OC)C(C)=[N+]([O-])C(c1ccncc1)N2` (stereo not drawn) [Example 13, 1,2-Dihydro-2-(4-pyridyl)-4-methyl-6,7-dimethoxyquinazoline-3-oxide], the change in vivo at 8.75 mg/kg in assay [1] is 29%. Turning to `COc1cc2c(cc1OC)C(C)=[N+]([O-])C(c1cccc(OCc3ccccc3)c1)N2` (stereo not drawn) [Example 7, 1,2-Dihydro-2-(3-benzyloxyphenyl)-4-methyl-6,7-dimethoxyquinazoline-3-oxide], the “% Inhibition” value in assay [2] worked out at 49.5%. Further, in assay [1], the change in vivo at 8.75 mg/kg amounted to 20%. As for `COc1cc2c(cc1OC)C(C)=[N+]([O-])C(c1ccco1)N2` (stereo not drawn) [Example 9, 1,2-Dihydro-2-(2-furyl)-4-methyl-6,7-dimethoxyquinazoline-3-oxide], the change in vivo at 8.75 mg/kg in assay [1] worked out at 123%. For `COc1cc2c(cc1OC)C(C)=[N+]([O-])C(c1ccccn1)N2` (stereo not drawn) [Example 12, 1,2-Dihydro-2-(2-pyridyl)-4-methyl-6,7-dimethoxyquinazoline-3-oxide], in assay [2], the “% Inhibition” value was found to be 37.9%. For the same compound, the change in vivo at 8.75 mg/kg in assay [1] stood at 45%. Consider `COc1cc2c(cc1OC)C(C)=[N+]([O-])C(c1cccn1C)N2` (stereo not drawn) [Example 11, 1,2-Dihydro-2-(2-(N-methyl)pyrrolo)-4-methyl-6,7-dimethoxyquinazoline-3-oxide], for which the change in vivo at 1.87 mg/kg in assay [1] is 29%. Take `COc1cc2c(cc1OC)C(C)=[N+]([O-])C(c1c(F)c(F)c(F)c(F)c1F)N2` (stereo not drawn) [Example 8, 1,2-Dihydro-2-pentafluorophenyl-4-methyl-6,7-dimethoxyquinazoline-3-oxide]: the “% Inhibition” value in assay [2] amounted to 27.3%. The change in vivo at 1.87 mg/kg in assay [1] stood at 33%.

Regarding `COc1cc2c(cc1OC)C(C)=[N+]([O-])C(c1ccccc1)N2` (stereo not drawn) [Example 1, 1,2-Dihydro-2-phenyl-4-methyl-6,7-dimethoxy-quinazoline-3-oxide], the “% Inhibition” value in assay [2] stood at 60.9%. The change in vivo at 8.75 mg/kg in assay [1] turned out to be 157%.
